Measured values: patent US8865734B2 (priority 2010, dated 2014)
Values after ≈ are worked out from the molar mass of the structure shown. Like-named read-outs stand apart in the source and are kept apart here.

What was measured:
[1] = system: in vitro grown Mycobacteria (M. tuberculosis); assay: QUM: Quantification of in vitro grown Mycobacteria (in vitro growth fluorescence assay); assay type: cell-based; conditions: Mycobacterium tuberculosis
Procedure, shortened: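 Mycobacterium tuberculosis grown in vitro was quantified by fluorescence across compound dose responses. MIC is defined as the minimum concentration producing 80% growth inhibition.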

[2] = system: M. tuberculosis inside the host macrophage; assay: QIM: Quantification of Intracellular Mycobacteria (intracellular growth assay, phenotypic cell-based); conditions: Mycobacterium tuberculosis
Procedure, shortened: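 Dose-response testing of intracellular mycobacterial replication in infected macrophages, a cell-based screening format; MIC is defined as the lowest concentration achieving 80% inhibition of bacterial growth.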

[3] = MIC, 80% bacterial growth inhibition, in vitro growth, read-out: QUM
[4] = MIC, 80% bacterial growth inhibition, intracellular growth, read-out: QIM

SMILES	MIC [1, 3] [µM]	MIC [2, 4] [µM]	other results
Cc1nc2ccccn2c1C(=O)NCCc1ccccc1 [Compound 21, 2-Methyl-N-phenethylimidazo[1,2-a]pyridine-3-carboxamide]	> 20	> 20	
CCc1nc2ccc(C)cn2c1C(=O)NCc1ccc(Oc2ccccc2)cc1 [Compound 63, 2-Ethyl-6-methyl-N-(4-phenoxybenzyl)imidazo[1,2-a]pyridine-3-carboxamide]	< 1	< 1	
CCc1nc2cc(OC)ccn2c1C(=O)NCc1ccc(OC(F)(F)F)cc1 [Compound 104, 2-Ethyl-7-methoxy-N-(4-(trifluoromethoxy)benzyl)imidazo[1,2-a]pyridine-3-carboxamide]	> 20	1 to 20 (≈ 0.393 to 7.87 µg/mL)	
Cc1nc2ccccn2c1C(=O)NCc1ccc2[nH]ccc2c1 [Compound 17, N-((1H-Indol-5-yl)methyl)-2-methylimidazo[1,2-a]pyridine-3-carboxamide]	1 to 20 (≈ 0.304 to 6.09 µg/mL)	1 to 20 (≈ 0.304 to 6.09 µg/mL)	
CCc1nc2cc(Cl)c(Cl)cn2c1C(=O)NCc1ccc(N2CCN(Cc3ccc(F)cc3)CC2)cc1 [Compound 175, 6,7-Dichloro-2-ethyl-N-(4-(4-(4-fluorobenzyl)piperazin-1-yl)benzyl)imidazo[1,2-a]pyridine-3-carboxamide]	> 20	< 1	
CCc1nc2ccc([N+](=O)[O-])cn2c1C(=O)NCc1ccc(OC(F)(F)F)cc1 [Compound 149, 2-Ethyl-6-nitro-N-(4-(trifluoromethoxy)benzyl)imidazo[1,2-a]pyridine-3-carboxamide]	> 20	> 20	
CCc1nc2cc(Cl)ccn2c1C(=O)NCc1ccc(-c2ccc(OC)cn2)cc1 [Compound 135, 7-Chloro-2-ethyl-N-(4-(5-methoxypyridin-2-yl)benzyl)imidazo[1,2-a]pyridine-3-carboxamide]	1 to 20 (≈ 0.421 to 8.42 µg/mL)	< 1	
CCc1nc2ccc(Cl)cn2c1C(=O)NCc1ccn(-c2ccc(F)cc2)n1 [Compound 235, 6-Chloro-2-ethyl-N-((1-(4-fluorophenyl)-1H-pyrazol-3-yl)methyl)imidazo[1,2-a]pyridine-3-carboxamide]	1 to 20 (≈ 0.398 to 7.96 µg/mL)	1 to 20 (≈ 0.398 to 7.96 µg/mL)	
CCCNc1ccc(CNC(=O)c2c(CC)nc3cc(Cl)ccn23)cc1 [Compound 106, 7-Chloro-2-ethyl-N-(4-(propylamino)benzyl)imidazo[1,2-a]pyridine-3-carboxamide]	< 1	1 to 20 (≈ 0.371 to 7.42 µg/mL)	
CCCC(=O)NCc1ccc(N2CCN(c3ccc(CNC(=O)c4c(CC)nc5cc(Cl)ccn45)cc3)CC2)cc1 [Compound 144, N-(4-(4-(4-(Butyramidomethyl)phenyl)piperazin-1-yl)benzyl)-7-chloro-2-ethylimidazo-[1,2-a]pyridine-3-carboxamide]	< 1	< 1	
CCc1nc2cc(Cl)ccn2c1C(=O)NCc1ccc(N2CCCCCC2)cc1 [Compound 222, N-(4-(Azepan-1-yl)benzyl)-7-chloro-2-ethylimidazo[1,2-a]pyridine-3-carboxamide]	< 1	< 1	
CCc1nc2cc(Cl)ccn2c1NC(=O)Cc1ccc(-c2ccccc2)cc1 [Compound 143, 2-(Biphenyl-4-yl)-N-(7-chloro-2-ethylimidazo[1,2-a]pyridin-3-yl)acetamide]	1 to 20 (≈ 0.39 to 7.8 µg/mL)	< 1	
CCc1nc2cc(Cl)ccn2c1C(=O)NCc1ccc(-c2ccc(Cl)cc2)cc1 [Compound 95, 7-Chloro-N-((4′-chlorobiphenyl-4-yl)methyl)-2-ethylimidazo[1,2-a]pyridine-3-carboxamide]	< 1	< 1	
CCc1nc2cc(Cl)ccn2c1C(=O)NCc1ccc(-c2ccc(Cl)cc2C(F)(F)F)cc1 [Compound 130, 7-Chloro-N-((4′-chloro-2′-(trifluoromethyl)biphenyl-4-yl)methyl)-2-ethylimidazo[1,2-a]pyridine-3-carboxamide]	1 to 20 (≈ 0.492 to 9.85 µg/mL)	< 1	
Cc1nc2c(Cl)cccn2c1C(=O)NCc1ccccc1 [Compound 27, N-Benzyl-8-chloro-2-methylimidazo[1,2-a]pyridine-3-carboxamide]	> 20	> 20	
CCc1nc2cc(Cl)ccn2c1C(=O)NCc1ccc(-c2ccc(F)cc2Cl)cc1 [Compound 133, 7-Chloro-N-((2′-chloro-4′-fluorobiphenyl-4-yl)methyl)-2-ethylimidazo[1,2-a]pyridine-3-carboxamide]	< 1	< 1	
CCc1nc2ccc(Cl)cn2c1C(=O)NCc1ccc(N2CCC(C)CC2)cc1 [Compound 214, 6-Chloro-2-ethyl-N-(4-(4-methylpiperidin-1-yl)benzyl)imidazo[1,2-a]pyridine-3-carboxamide]	< 1	< 1	
Cc1nc2ccccn2c1C(=O)NCCOc1ccccc1 [Compound 23, 2-Methyl-N-(2-phenoxyethyl)imidazo[1,2-a]pyridine-3-carboxamide]	1 to 20 (≈ 0.295 to 5.91 µg/mL)	1 to 20 (≈ 0.295 to 5.91 µg/mL)	
Cc1nc2ccccn2c1C(=O)NCc1ccc(-c2ccccc2)cc1 [Compound 16, N-(Biphenyl-4-ylmethyl)-2-methylimidazo[1,2-a]pyridine-3-carboxamide]	< 1	< 1	

SMILES	MIC [1, 3] [µM]	MIC [2, 4] [µM]	other results
CCc1nc2cc(Cl)ccn2c1C(=O)NCc1ccc2ccccc2c1 [Compound 91, 7-Chloro-2-ethyl-N-(naphthalen-2-ylmethyl)imidazo[1,2-a]pyridine-3-carboxamide]	< 1	1 to 20 (≈ 0.364 to 7.28 µg/mL)	
CCc1nc2ccccn2c1C(=O)NCc1ccc(OC(F)(F)F)cc1 [Compound 57, 2-Ethyl-N-(4-(trifluoromethoxy)benzyl)imidazo[1,2-a]pyridine-3-carboxamide]	< 1	< 1	
Cc1nc2ccccn2c1C(=O)NCc1ccc(Oc2ccccc2)cc1 [Compound 15, 2-Methyl-N-(4-phenoxybenzyl)imidazo[1,2-a]pyridine-3-carboxamide]	1 to 20 (≈ 0.357 to 7.15 µg/mL)	< 1	
CCc1nc2cc(Cl)ccn2c1C(=O)NCc1ccc(O)cc1 [Compound 88, 7-Chloro-2-ethyl-N-(4-hydroxybenzyl)imidazo[1,2-a]pyridine-3-carboxamide]	1 to 20 (≈ 0.33 to 6.6 µg/mL)	1 to 20 (≈ 0.33 to 6.6 µg/mL)	
CCc1nc2ccc(F)cn2c1C(=O)NCc1ccc(N2CCOCC2)cc1 [Compound 316, 2-Ethyl-6-fluoro-N-(4-morpholinobenzyl)imidazo[1,2-a]pyridine-3-carboxamide]	1 to 20 (≈ 0.382 to 7.65 µg/mL)	1 to 20 (≈ 0.382 to 7.65 µg/mL)	
CCc1nc2cc(Cl)ccn2c1C(=O)NCc1ccc(-c2cccc(C)c2)cc1 [Compound 97, 7-Chloro-2-ethyl-N-((3′-methylbiphenyl-4-yl)methyl)imidazo[1,2-a]pyridine-3-carboxamide]	< 1	< 1	
CC(C)c1nc2ccccn2c1C(=O)NCc1ccccc1 [Compound 51, N-Benzyl-2-isopropylimidazo[1,2-a]pyridine-3-carboxamide]	> 20	> 20	
CCc1nc2ccc(Cl)cn2c1C(=O)NCc1ccc(OCC(C)C)cc1 [Compound 76]	< 1	< 1	
CCc1nc2cc(Cl)ccn2c1C(=O)NCc1ccc(-c2ccc(C#N)cc2)cc1 [Compound 122, 7-Chloro-N-((4′-cyanobiphenyl-4-yl)methyl)-2-ethylimidazo[1,2-a]pyridine-3-carboxamide]	< 1	< 1	
CCc1nc2ccc(Cl)cn2c1C(=O)N(C)Cc1ccc(Oc2ccc(F)cc2)cc1 [Compound 197, 6-Chloro-2-ethyl-N-(4-(4-fluorophenoxy)benzyl)-N-methylimidazo[1,2-a]pyridine-3-carboxamide]	1 to 20 (≈ 0.438 to 8.76 µg/mL)	1 to 20 (≈ 0.438 to 8.76 µg/mL)	
CCc1nc2cc(Cl)ccn2c1C(=O)NCc1ccc(-n2cccc2)cc1 [Compound 138, N-(4-(1H-Pyrrol-1-yl)benzyl)-7-chloro-2-ethylimidazo[1,2-a]pyridine-3-carboxamide]	< 1	< 1	
CCc1nc2ccc(C)cn2c1C(=O)NCc1ccc2c(ccn2C)c1 [Compound 66, 2-Ethyl-6-methyl-N-((1-methyl-1H-indol-5-yl)methyl)imidazo[1,2-a]pyridine-3-carboxamide]	< 1	< 1	
Cc1nc2ccccn2c1C(=O)NCc1ccccc1 [Compound 8, N-Benzyl-2-methylimidazo[1,2-a]pyridine-3-carboxamide]			MIC ([1]; read-out: QUM (μM)): > 20 µM; MIC ([1]; dose response confirmation, 80% bacterial growth inhibition, read-out: minimum inhibitory concentration (MIC), QUM assay): 5 µM (≈ 1.33 µg/mL); MIC ([2]; read-out: QIM (μM)): 1 to 20 µM (≈ 0.265 to 5.31 µg/mL); MIC ([2]; dose response confirmation, 80% bacterial growth inhibition, read-out: minimum inhibitory concentration (MIC), QIM assay): 2.5 µM (≈ 0.663 µg/mL)
CCc1nc2ccc(F)cn2c1C(=O)NCc1ccc(OC(F)(F)F)cc1 [Compound 103, 2-Ethyl-6-fluoro-N-(4-(trifluoromethoxy)benzyl)imidazo[1,2-a]pyridine-3-carboxamide]	1 to 20 (≈ 0.381 to 7.63 µg/mL)	< 1	
O=C(NCc1ccc(-c2ccccc2)cc1)c1c(C(F)(F)F)nc2ccc(Cl)cn12 [Compound 99, N-(Biphenyl-4-ylmethyl)-6-chloro-2-(trifluoromethyl)imidazo[1,2-a]pyridine-3-carboxamide]	< 1	< 1	
Cc1nc2cc(Cl)ccn2c1C(=O)NCc1ccccc1 [Compound 28, N-Benzyl-7-chloro-2-methylimidazo[1,2-a]pyridine-3-carboxamide]	> 20	1 to 20 (≈ 0.3 to 6 µg/mL)	
Cc1nc2cccc(C)n2c1C(=O)NCc1ccccc1 [Compound 33, N-Benzyl-2,5-dimethylimidazo[1,2-a]pyridine-3-carboxamide]	> 20	> 20	
CCc1nc2cc(Cl)c(Cl)cn2c1C(=O)NCc1ccc(N2CCN(c3ccc(F)cc3)CC2)cc1 [Compound 180, 6,7-Dichloro-2-ethyl-N-(4-(4-(4-fluorophenyl)piperazin-1-yl)benzyl)imidazo[1,2-a]pyridine-3-carboxamide]	< 1	< 1	
